In one assay the test system is Nitrilase isolated from Acinetobacter sp. AK 226 strain. Briefly: Substrate specificity of purified nitrilase (hydrolysis of nitriles to organic acid and ammonia).
Details: not given
For `N#Cc1ccccc1F` [o-Fluorobenzonitrile], the Relative activity is reported as 50.4 ×10^2%.

Take `N#Cc1cccc(C#N)c1` [m-Phthalonitrile]: the Relative activity is 80.7 ×10^2%.

As for `N#CC(N)c1ccccc1` (stereo not shown) [2-Phenylglycinonitrile], the Relative activity is 0.000 ×10^2%.

In the case of `N#CCO` [Hydroxyacetonitrile], the Relative activity is reported as 11.4 ×10^2%.

Regarding `N#Cc1cccc(Cl)c1` [m-Chlorobenzonitrile], the Relative activity is 68.9 ×10^2%.

For `CCCCCC#N` [n-Capronitrile], the Relative activity is on record as 5.93 ×10^2%.

As for `N#Cc1ccc(F)cc1` [p-Fluorobenzonitrile], the Relative activity was 83.9 ×10^2%.

As for Thiopheneacetonitrile, the Relative activity is 45.5 ×10^2%.

`Cc1cccc(C#N)c1` [m-Tolunitrile]: the Relative activity is 74.8 ×10^2%.

Consider `N#Cc1cccnc1` [Nicotinonitrile], for which the Relative activity is given as 52.7 ×10^2%.

On to `N#CCCCC#N` [Glutaronitrile], for which the Relative activity is on record as 50.9 ×10^2%.

For `N#Cc1cccc([N+](=O)[O-])c1` [m-Nitrobenzonitrile], the Relative activity was 47.6 ×10^2%.

With `Cc1ccccc1C#N` [o-Tolunitrile], the Relative activity is 0.743 ×10^2%.

Take `C=C(C)C#N` [Methacrylonitrile]: the Relative activity is 68.4 ×10^2%.

`CCCC#N` [n-Butyronitrile]: the Relative activity is 17.4 ×10^2%.

For `C=CC#N` [Acrylonitrile], the Relative activity is listed as 144 ×10^2%.

Turning to `CC#N` [Acetonitrile], the Relative activity is recorded as 45.3 ×10^2%.

`N#CCCl` [Chloroacetonitrile]: the Relative activity is 108 ×10^2%.

As to `CC(C#N)c1ccccc1` (stereo not drawn) [α-Phenylpropionitrile], the Relative activity is given as 0.534 ×10^2%.

In the case of `N#CC(Br)CBr` (stereo not shown) [2,3-Dibromopropionitrile], the Relative activity is listed as 90.3 ×10^2%.

Turning to `CC(C)CCC#N` [iso-Capronitrile], the Relative activity is reported as 8.12 ×10^2%.

The assay is the same for the next values; noted with them: racemic substrate.
Regarding `CC(C)Cc1ccc(C(C)C#N)cc1` (stereo not shown), the “Reaction rate with the S isomer compared with the R isomer” value was “much higher”.

For the origin of these results see patent publication US5283193A, “Process for producing optically active α-substituted organic acid and microorganism and enzyme used therefor” (Asahi Kasei Kogyo K.K., priority 1988, dated 1994).
